Results: US3956510A, “Certain mixed antibacterials” (priority 1974, dated 1976)

Columns and labels:
Pseudomonas aeruginosa [1] = test: bacteriostatic activity / minimum inhibitory concentration against Pseudomonas aeruginosa; format: cell-based
Pseudomonas aeruginosa [2] = conditions: alone; is reported; cited from earlier work
bacteria = conditions: cited from earlier work

## Oc1cc(Cl)ccc1Oc1ccc(Cl)cc1Cl [2,4,4'-trichloro-2'-hydroxydiphenyl ether]
Pseudomonas aeruginosa [1]; in the presence of a surfactant such as soap
  activity in the presence of a surfactant: no practical activity is demonstrable
Pseudomonas aeruginosa [2]
  minimum inhibitory concentration: greater than 300 ppm

## benzalkonium chloride
bacteria; dried bacteria coated with a greasy film, Rahm 1946
  bactericidal effect on dried bacteria coated with a greasy film: can survive many hours of contact
bacteria; ordinarily
  bactericidal effect: ordinarily kills bacteria

## O=C(Nc1ccc(Br)cc1)c1cc(Br)cc(Br)c1O [3,4',5-tribromo salicylanilide]
Pseudomonas aeruginosa [1]; alone, under the most ideal conditions
  bacteriostatic activity: 75 ppm
Pseudomonas aeruginosa [1]; with 2% soap, based on active ingredient
  bacteriostatic activity: 160 ppm
